ChEMBL document CHEMBL1201862, “PubChem BioAssay data set” (2004)
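Exposure lasted 48 hours, with cells grown in 96-well plates and compounds tested at five concentrations. GI50 = concentration required for 50% inhibition of growth.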 Active and inactive are the calls of the source. Cut-off read from the data, not from the text of the source: active = GI50 up to about 1.1 µM and inactive = higher.

Assays:
Assay in all cases: NCI tumour cell line growth inhibition, 48 h
A549 = test system: A549
ACHN = test system: ACHN
COLO 205 = test system: COLO 205
DU-145 = test system: DU-145
EKVX = test system: EKVX
HCT-116 = test system: HCT-116
HCT-15 = test system: HCT-15
HOP-62 = test system: HOP-62
HOP-92 = test system: HOP-92
HT-29 = test system: HT-29
Hs-578T = test system: Hs-578T
IGROV-1 = test system: IGROV-1
LOX IMVI = test system: LOX IMVI
M14 = test system: M14
MDA-MB-231 = test system: MDA-MB-231
MDA-N = test system: MDA-N
MOLT-4 = test system: MOLT-4
Malme-3M = test system: Malme-3M
NCI-H460 = test system: NCI-H460
NCI-H522 = test system: NCI-H522
NCI/ADR-RES = test system: NCI/ADR-RES
OVCAR-3 = test system: OVCAR-3
OVCAR-4 = test system: OVCAR-4
OVCAR-8 = test system: OVCAR-8
PC-3 = test system: PC-3
SF-268 = test system: SF-268
SF-295 = test system: SF-295
SK-MEL-2 = test system: SK-MEL-2
SK-MEL-5 = test system: SK-MEL-5
SK-OV-3 = test system: SK-OV-3
SN12C = test system: SN12C
SNB-75 = test system: SNB-75
SR = test system: SR
SW-620 = test system: SW-620
T47D = test system: T47D
UACC-257 = test system: UACC-257
UACC-62 = test system: UACC-62
786-0 = test system: 786-0
A498 = test system: A498
CAKI-1 = test system: CAKI-1
CCRF-CEM = test system: CCRF-CEM
HCC 2998 = test system: HCC 2998
HL-60 = test system: HL-60
K562 = test system: K562
KM12 = test system: KM12
MCF7 = test system: MCF7
MDA-MB-435 = test system: MDA-MB-435
NCI-H226 = test system: NCI-H226
NCI-H23 = test system: NCI-H23
RPMI-8226 = test system: RPMI-8226
RXF 393 = test system: RXF 393
SF-539 = test system: SF-539
SK-MEL-28 = test system: SK-MEL-28
SNB-19 = test system: SNB-19
TK-10 = test system: TK-10
U-251 = test system: U-251
UO-31 = test system: UO-31

Measured: GI50

CC(C)c1cc(C(C)C)c(B(c2ccccc2)c2ccccc2)c(C(C)C)c1B(c1ccccc1)c1ccccc1
> 100 µM: HCT-15
inactive: A549 > 100 µM | ACHN > 100 µM | COLO 205 > 100 µM | DU-145 > 100 µM | EKVX > 100 µM | HCT-116 > 100 µM | HOP-62 > 100 µM | HOP-92 > 100 µM | HT-29 > 100 µM | Hs-578T > 100 µM | IGROV-1 > 100 µM | LOX IMVI > 100 µM | M14 > 100 µM | MDA-MB-231 > 100 µM | MDA-N > 100 µM | MOLT-4 > 100 µM | Malme-3M > 100 µM | NCI-H460 > 100 µM | NCI-H522 > 100 µM | NCI/ADR-RES > 100 µM | OVCAR-3 > 100 µM | OVCAR-4 > 100 µM | OVCAR-8 > 100 µM | PC-3 > 100 µM | SF-268 > 100 µM | SF-295 > 100 µM | SK-MEL-2 > 100 µM | SK-MEL-5 > 100 µM | SK-OV-3 > 100 µM | SN12C > 100 µM | SNB-75 > 100 µM | SR > 100 µM | SW-620 > 100 µM | T47D > 100 µM | UACC-257 > 100 µM | UACC-62 > 100 µM

O=C(c1ccc2ccccc2c1O)N1CCCCC1
> 100 µM: HCT-15
inactive: 786-0 > 100 µM | A498 > 100 µM | ACHN > 100 µM | CAKI-1 > 100 µM | CCRF-CEM > 100 µM | COLO 205 > 100 µM | DU-145 > 100 µM | EKVX 61.4 µM | HCC 2998 > 100 µM | HCT-116 65.8 µM | HL-60 68.9 µM | HOP-62 > 100 µM | HOP-92 78.9 µM | HT-29 > 100 µM | Hs-578T > 100 µM | IGROV-1 > 100 µM | K562 28.4 µM | KM12 > 100 µM | LOX IMVI 90.4 µM | M14 > 100 µM | MCF7 > 100 µM | MDA-MB-231 > 100 µM | MDA-MB-435 > 100 µM | MOLT-4 23.2 µM | NCI-H226 > 100 µM | NCI-H23 32.4 µM | NCI-H460 80.7 µM | NCI/ADR-RES 39 µM | OVCAR-4 > 100 µM | OVCAR-8 68.2 µM | PC-3 > 100 µM | RPMI-8226 27.4 µM | RXF 393 > 100 µM | SF-268 > 100 µM | SF-295 92.9 µM | SF-539 > 100 µM | SK-MEL-28 > 100 µM | SK-MEL-2 > 100 µM | SK-MEL-5 34 µM | SK-OV-3 > 100 µM | SNB-19 > 100 µM | SNB-75 > 100 µM | SR > 10 µM | SW-620 > 100 µM | T47D 71.3 µM | TK-10 > 100 µM | U-251 > 100 µM | UACC-257 > 100 µM | UACC-62 > 100 µM | UO-31 > 100 µM

CC(=O)OC[C@]12CCC3[C@@]4(C)CCCC(C)(C)C4CC[C@@]3(C)C1CC(C1=CC(=O)OC1O)O2 (stereo partly drawn)
inactive: A549 1.85 µM | CAKI-1 1.72 µM | COLO 205 2.25 µM | DU-145 4.07 µM | EKVX 2.44 µM | HCC 2998 1.47 µM | HOP-62 1.9 µM | IGROV-1 1.19 µM | KM12 1.68 µM | M14 1.5 µM | MDA-MB-231 1.26 µM | MDA-N 1.16 µM | NCI-H23 1.39 µM | PC-3 1.32 µM | SF-268 1.44 µM | SK-MEL-5 1.44 µM | SK-OV-3 1.87 µM | SNB-75 1.8 µM | T47D 1.32 µM | TK-10 1.75 µM | UACC-62 1.53 µM
0.516 µM: HCT-15
active: 786-0 0.219 µM | CCRF-CEM 0.271 µM | HL-60 0.428 µM | HT-29 0.692 µM | K562 0.425 µM | MCF7 0.726 µM | MOLT-4 0.252 µM | OVCAR-8 0.962 µM | RPMI-8226 0.275 µM | RXF 393 0.382 µM | SK-MEL-28 0.512 µM | SR 0.259 µM | SW-620 0.375 µM
